Measurements reported in patent publication US5744492A, “Method for inhibiting angiogenesis” (United States of America, priority 1994, dated 1998).

Legend:
[1] = system: chick chorioallantoic membrane; experiment: Chick chorioallantoic membrane (CAM) angiogenesis assay; assay type: in vivo
Protocol: The chick chorioallantoic or yolk sac membrane (CAM) assays for angiogenesis are important in vivo models of microvessel formation. […] Briefly, fertilized chick embryos with the yolk intact were removed from their shells on day 3 of development and incubated at 37° C.

MMP-2 = experiment: Northern blot analysis of MMP-2 expression in HUVECs; assay type: cell-based, human; conditions: bFGF 10 ng/mL alone, 24 hr
Protocol: (§1) Human umbilical vein endothelial cells (H 930) were generously supplied by Dr. Tom Maciag, American Red Cross (Gaithersburg, Md., USA) and were used between passages 9 and 14 to avoid senescence. HUVECs were grown on fibronectin-coated tissue culture plastic (200 μg/150 mm dish) in complete medium (Medium 199 (M-199) containing 5 U/mL preservative-free heparin, 25.5 μg/mL ECGS, 10% fetal bovine serum and 100 U/mL penicillin, 100 μg/mL streptomycin, and 0.25 μg/mL fungizone).
(§2) HUVECs were grown to confluence as described. Fresh complete medium with test compounds was added to confluent cells for an additional 24 hr incubation. bFGF (10 ng/mL), and/or compound 1 (10 μM) or DMSO control (0.1%) were added as indicated below. Total RNA was isolated by the guanidine isothiocyanate/CsCl method. Aliquots of RNA (7.5 μg) were separated on 1% agarose/formaldehyde gels, passively transferred to GeneScreen Plus membrane in 20X SSC, then cross-linked with ultraviolet light. Blots were prewashed for 1 hr at 42° C. in 1M NaCl, 10 mM Tris, 1 mM EDTA, 0.1% SDS and then hybridized overnight at 42° C. with a formamide-containing buffer (hybridization buffer final: 50% formamide, 4X SSC, 10 mM Tris pH 7.5, IX Denhardt solution, 0.2% SDS, 125 μg/ml salmon sperm DNA) with a random-primed 300 bp insert for MMP-2 (gift of Dr. William Stetler-Stevenson, Laboratory of Pathology, NCI). Blots were washed under stringent conditions then exposed to film. After removal of MMP-2 probe, blots were rehybridized with β-actin probe for quantitation of the RNA load. Results were quantitated by densitometric evaluation of the autoradiographs.
(§3) Lane 1 corresponds to the mRNA from HUVECs treated with DMSO (control). Lanes 2-4 show the mRNA isolated from HUVECs treated with compound 1 (10 μM) alone, compound 1 (10 μM) and bFGF (10 ng/mL), bFGF (10 ng/mL) alone, respectively.

β-actin = experiment: Northern blot, β-actin probe for quantitation of RNA load in HUVECs; assay type: cell-based, human; conditions: bFGF 10 ng/mL alone, 24 hr
Protocol: as §1, §2, §3

[2] = positive control, 60μ (text: 60 μg)

NC(=O)c1nc[nH]c1N [AIC, aminoimidazole carboxamide, reference compound]
% Inhibition (capillary formation in vivo) ([1]; 10 μM, 48 hr): 16% | Eggs with avascular zones/total ([1]; 10 μM, 48 hr): 4/24 | angiogenesis inhibitory effect (in words) ([1]; 10 or 20 μM, 48 hr): inactive

C[C@]12CCC(=O)C=C1CC[C@@H]1[C@@H]2[C@@H](O)C[C@@]2(C)[C@H]1CC[C@]2(O)C(=O)CO [Hydrocortisone, hydrocortisone, reference compound]
% Inhibition (capillary formation in vivo) [1, 2]: 55% | Eggs with avascular zones/total [1, 2]: 10/18

bFGF: Recombinant basic fibroblast growth factor (bFGF)
Corrected values (MMP-2 mRNA corrected for loading) (MMP-2): 0.37 | MMP-2 (densitometer) (MMP-2): 77 Densitometer units | β-actin (densitometer) (β-actin): 205 Densitometer units
